Assay results as given in US8952024B2, “Herbicidal pyrimidone derivatives” (E I du Pont de Nemours and Company, priority 2009, dated 2015).

Columns and labels:
Test in all cases: Test B pre-/postemergence plant response
Format in all cases: in vivo
[1] = tested on: blackgrass (Alopecurus myosuroides)
In short: (§1)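 Test compounds, formulated in a non-phytotoxic solvent mixture with surfactant, are applied to the soil surface (loam and sand blend) right after seeding, or sprayed over plants at the 1- to 4-leaf stage grown in peat moss/vermiculite medium. After 13 to 15 days under glasshouse conditions, each species is scored visually from 0 (no effect) to 100 (complete control) against controls.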

[2] = tested on: kochia (Kochia scoparia)
In short: as §1

[3] = tested on: lambsquarters (Chenopodium album)
In short: as §1

[4] = tested on: woolly cupgrass (Eriochloa villosa)
In short: as §1

[5] = tested on: bermudagrass (Cynodon dactylon)
In short: as §1

[6] = tested on: Italian ryegrass (Lolium multiflorum)
In short: as §1

[7] = tested on: Surinam grass (Brachiaria decumbens)
In short: as §1

[8] = tested on: ragweed (common ragweed, Ambrosia elatior)
In short: as §1

[9] = tested on: corn (Zea mays)
In short: as §1

[10] = tested on: goosegrass (Eleusine indica)
In short: as §1

[11] = tested on: johnsongrass (Sorghum halepense)
In short: as §1

[12] = tested on: velvetleaf (Abutilon theophrasti)
In short: as §1

[13] = tested on: giant foxtail (Setaria faberii)
In short: as §1

[14] = tested on: green foxtail (Setaria viridis)
In short: as §1

[15] = tested on: large crabgrass (Digitaria sanguinalis)
In short: as §1

[16] = tested on: yellow nutsedge (Cyperus esculentus)
In short: as §1

[17] = tested on: downy bromegrass (Bromus tectorum)
In short: as §1

[18] = 31 g ai/ha, postemergence, scale 0 to 100, 0 is no effect, 100 is complete control
[19] = 62 g ai/ha, postemergence, 0 is no effect, 100 is complete control, 13 to 15 days
[20] = 250 g ai/ha, Preemergence, 0 to 100 scale
[21] = Postemergence, 125 g ai/ha, visual rating after 13 to 15 days, scale 0 (no effect) to 100 (complete control)
[22] = Postemergence, 250 g ai/ha, scale 0 to 100 (0 no effect, 100 complete control)
[23] = Preemergence, 31 g ai/ha, scale 0 to 100 (0 no effect, 100 complete control)
[24] = Preemergence, 62 g ai/ha, scale 0 to 100, 0 no effect, 100 complete control
[25] = Preemergence, 125 g ai/ha, scale 0 to 100, 0 no effect, 100 complete control

CC(C)Cc1ncc(C(=O)C2=C(O)CCCC2=O)c(=O)n1-c1ccccc1 [Compound 68]
Plant response rating, Blackgrass [1, 18]: 0
Blackgrass plant response rating (0 to 100 scale) [1, 19]: 0
Plant response rating, Blackgrass [1, 20]: 5
Plant response rating, Blackgrass [1, 21]: 0
Plant response rating, Blackgrass [1, 22]: 20
Plant response rating, Blackgrass [1, 23]: 0
Plant response rating, Blackgrass [1, 24]: 0
Plant response rating, Blackgrass [1, 25]: 0
Plant response rating, Kochia [2, 18]: 70
Kochia plant response rating (0 to 100 scale) [2, 19]: 90
Plant response rating, Kochia [2, 20]: 95
Plant response rating, Kochia [2, 21]: 95
Plant response rating, Kochia [2, 22]: 98
Plant response rating, Kochia [2, 23]: 80
Plant response rating, Kochia [2, 24]: 80
Plant response rating, Kochia [2, 25]: 95
Plant response rating, Lambsquarters [3, 18]: 95
Lambsquarters plant response rating (0 to 100 scale) [3, 19]: 98
Plant response rating, Lambsquarters [3, 20]: 100
Plant response rating, Lambsquarters [3, 21]: 100
Plant response rating, Lambsquarters [3, 22]: 100
Plant response rating, Lambsquarters [3, 23]: 98
Plant response rating, Lambsquarters [3, 24]: 98
Plant response rating, Lambsquarters [3, 25]: 98
Plant response rating, Cupgrass, Woolly [4, 18]: 10
Cupgrass, Woolly plant response rating (0 to 100 scale) [4, 19]: 10
Plant response rating, Cupgrass, Woolly [4, 20]: 85
Plant response rating, Cupgrass, Woolly [4, 21]: 55
Plant response rating, Cupgrass, Woolly [4, 22]: 75
Plant response rating, Cupgrass, Woolly [4, 23]: 5
Plant response rating, Cupgrass, Woolly [4, 24]: 20
Plant response rating, Cupgrass, Woolly [4, 25]: 55
Plant response rating, Bermudagrass [5, 18]: 75
Bermudagrass plant response rating (0 to 100 scale) [5, 19]: 75
Plant response rating, Bermudagrass [5, 20]: 100
Plant response rating, Bermudagrass [5, 21]: 95
Plant response rating, Bermudagrass [5, 22]: 98
Plant response rating, Bermudagrass [5, 23]: 95
Plant response rating, Bermudagrass [5, 24]: 98
Plant response rating, Bermudagrass [5, 25]: 98
Plant response rating, Ryegrass, Italian [6, 18]: 5
Ryegrass, Italian plant response rating (0 to 100 scale) [6, 19]: 5
Plant response rating, Ryegrass, Italian [6, 21]: 15
Plant response rating, Ryegrass, Italian [6, 22]: 50
Plant response rating, Ryegrass, Italian [6, 23]: 0
Plant response rating, Ryegrass, Italian [6, 24]: 0
Plant response rating, Ryegrass, Italian [6, 25]: 0
Plant response rating, Surinam Grass [7, 18]: 25
Surinam Grass plant response rating (0 to 100 scale) [7, 19]: 55
Plant response rating, Surinam Grass [7, 21]: 70
Plant response rating, Surinam Grass [7, 22]: 90
Plant response rating, Surinam Grass [7, 23]: 45
Plant response rating, Surinam Grass [7, 24]: 50
Plant response rating, Surinam Grass [7, 25]: 55
Plant response rating, Ragweed [8, 18]: 75
Ragweed plant response rating (0 to 100 scale) [8, 19]: 80
Plant response rating, Ragweed [8, 21]: 80
Plant response rating, Ragweed [8, 22]: 95
Plant response rating, Ragweed [8, 23]: 10
Plant response rating, Ragweed [8, 24]: 75
Plant response rating, Ragweed [8, 25]: 80
Plant response rating, Corn [9, 18]: 0
Corn plant response rating (0 to 100 scale) [9, 19]: 15
Plant response rating, Corn [9, 20]: 0
Plant response rating, Corn [9, 21]: 80
Plant response rating, Corn [9, 22]: 80
Plant response rating, Corn [9, 23]: 0
Plant response rating, Corn [9, 24]: 0
Plant response rating, Corn [9, 25]: 0
Plant response rating, Goosegrass [10, 18]: 65
Goosegrass plant response rating (0 to 100 scale) [10, 19]: 70
Plant response rating, Goosegrass [10, 20]: 98
Plant response rating, Goosegrass [10, 21]: 85
Plant response rating, Goosegrass [10, 22]: 95
Plant response rating, Goosegrass [10, 23]: 80
Plant response rating, Goosegrass [10, 24]: 95
Plant response rating, Goosegrass [10, 25]: 98
Plant response rating, Johnsongrass [11, 18]: 10
Johnsongrass plant response rating (0 to 100 scale) [11, 19]: 10
Plant response rating, Johnsongrass [11, 20]: 95
Plant response rating, Johnsongrass [11, 21]: 75
Plant response rating, Johnsongrass [11, 22]: 100
Plant response rating, Johnsongrass [11, 23]: 0
Plant response rating, Johnsongrass [11, 24]: 5
Plant response rating, Johnsongrass [11, 25]: 75
Plant response rating, Velvetleaf [12, 18]: 95
Velvetleaf plant response rating (0 to 100 scale) [12, 19]: 100
Plant response rating, Velvetleaf [12, 21]: 100
Plant response rating, Velvetleaf [12, 22]: 100
Plant response rating, Velvetleaf [12, 23]: 95
Plant response rating, Velvetleaf [12, 24]: 100
Plant response rating, Velvetleaf [12, 25]: 100
Plant response rating, Foxtail, Giant [13, 18]: 65
Foxtail, Giant plant response rating (0 to 100 scale) [13, 19]: 80
Plant response rating, Foxtail, Giant [13, 20]: 75
Plant response rating, Foxtail, Giant [13, 21]: 85
Plant response rating, Foxtail, Giant [13, 22]: 90
Plant response rating, Foxtail, Giant [13, 23]: 0
Plant response rating, Foxtail, Giant [13, 24]: 20
Plant response rating, Foxtail, Giant [13, 25]: 55
Plant response rating, Foxtail, Green [14, 18]: 40
Foxtail, Green plant response rating (0 to 100 scale) [14, 19]: 85
Plant response rating, Foxtail, Green [14, 20]: 85
Plant response rating, Foxtail, Green [14, 21]: 85
Plant response rating, Foxtail, Green [14, 22]: 95
Plant response rating, Foxtail, Green [14, 23]: 0
Plant response rating, Foxtail, Green [14, 24]: 5
Plant response rating, Foxtail, Green [14, 25]: 25
Plant response rating, Crabgrass, Large [15, 18]: 75
Crabgrass, Large plant response rating (0 to 100 scale) [15, 19]: 90
Plant response rating, Crabgrass, Large [15, 20]: 100
Plant response rating, Crabgrass, Large [15, 21]: 90
Plant response rating, Crabgrass, Large [15, 22]: 98
Plant response rating, Crabgrass, Large [15, 23]: 65
Plant response rating, Crabgrass, Large [15, 24]: 95
Plant response rating, Crabgrass, Large [15, 25]: 98
Plant response rating, Nutsedge, Yellow [16, 18]: 0
Nutsedge, Yellow plant response rating (0 to 100 scale) [16, 19]: 10
Plant response rating, Nutsedge, Yellow [16, 21]: 70
Plant response rating, Nutsedge, Yellow [16, 22]: 80
Plant response rating, Nutsedge, Yellow [16, 23]: 0
Plant response rating, Nutsedge, Yellow [16, 24]: 70
Plant response rating, Nutsedge, Yellow [16, 25]: 85
Plant response rating, Bromegrass, Downy [17, 18]: 5
Bromegrass, Downy plant response rating (0 to 100 scale) [17, 19]: 5
Plant response rating, Bromegrass, Downy [17, 20]: 5
Plant response rating, Bromegrass, Downy [17, 21]: 25
Plant response rating, Bromegrass, Downy [17, 22]: 40
Plant response rating, Bromegrass, Downy [17, 23]: 0
Plant response rating, Bromegrass, Downy [17, 24]: 0
Plant response rating, Bromegrass, Downy [17, 25]: 0
